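Growth conditions: 96-well plates. Treatment: test compound, 48 hours, 5 concentrations. Analysis: linear interpolation between bracketing concentrations; unreached endpoints set to highest concentration. The concentration for 50% growth inhibition is given as GI50. TGI marks complete inhibition of growth.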
Legend:
Experiment in all cases: inhibition of tumour cell growth, NCI panel, 48 h
U251 CNS = tested on: U251 CNS
SF-268 CNS = tested on: SF-268 CNS
NCI-H522 lung = tested on: NCI-H522 lung
HCC-2998 colon = tested on: HCC-2998 colon
TK-10 renal = tested on: TK-10 renal
NCI-H460 lung = tested on: NCI-H460 lung
NCI-H23 lung = tested on: NCI-H23 lung
HS 578T breast = tested on: HS 578T breast
SN12C renal = tested on: SN12C renal
KM12 colon = tested on: KM12 colon

SMILES	TGI (U251 CNS) [µM]	TGI (SF-268 CNS) [µM]	TGI (NCI-H522 lung) [µM]	TGI (HCC-2998 colon) [µM]	TGI (TK-10 renal) [µM]	TGI (NCI-H460 lung) [µM]	TGI (NCI-H23 lung) [µM]	TGI (HS 578T breast) [µM]	TGI (SN12C renal) [µM]	TGI (KM12 colon) [µM]	GI50 (U251 CNS) [µM]	GI50 (SF-268 CNS) [nM]	GI50 (NCI-H522 lung) [µM]	GI50 (HCC-2998 colon) [nM]	GI50 (TK-10 renal) [nM]	GI50 (NCI-H460 lung) [nM]	GI50 (NCI-H23 lung) [nM]	GI50 (HS 578T breast) [nM]	GI50 (SN12C renal) [nM]	GI50 (KM12 colon) [nM]
COC(=O)N[C@H](C(=O)O)C(C)O[Si](C)(C)C(C)(C)C (stereo partly drawn)	> 100	> 100	> 100	> 100	> 100	> 100	> 100	> 100	> 100	> 100	–	–	–	–	–	–	–	–	–	–
NCC(O)CNC(=O)c1ccc(-c2ccc(-c3ccc(C(=O)NCC(O)CN)cc3)o2)cc1 (stereo not drawn)	42.6	69.3	> 100	96.5	38.9	> 100	> 100	59.7	68.9	> 100	–	–	–	–	–	–	–	–	–	–
COc1ccccc1NC(=O)CC(=O)N1N=C(N2c3ccccc3Sc3ccccc32)CC1c1ccccc1 (stereo not drawn)	> 100	> 100	> 100	> 100	> 100	> 100	> 100	> 100	> 100	> 100	–	–	–	–	–	–	–	–	–	–
COC(=O)c1c(O)ccc2[nH]c3c(O)c4ccccc4cc3c12	> 100	54.7	53.6	32.8	> 100	63.5	64.3	72.8	> 100	38.8	–	–	–	–	–	–	–	–	–	–
CCCCCCCCCCCCCCCCOP(=O)(O)OCC(N)C(=O)O (stereo not drawn)	26.5	41.6	42	> 100	16.5	51.8	69.4	40.8	37.1	30.2	–	–	–	–	–	–	–	–	–	–
C=C1CC(Cn2ccc(=O)[nH]c2=O)(c2ccc(Cl)cc2)OC1=O (stereo not drawn)	31.7	43.5	2.26	31.2	4.72	26.1	12.8	38.7	28.1	> 58.4	–	–	–	–	–	–	–	–	–	–
CC(=O)Oc1c2c(c3n(c1=O)CCCC3)C(=O)N(c1ccccc1)C2=O	> 100	> 100	> 100	97.2	> 100	> 100	> 100	> 100	> 100	> 100	–	–	–	–	–	–	–	–	–	–
O=c1ccn(C2OC(CO)C(O)C2F)c(=O)n1Cc1ccccc1 (stereo not drawn)	> 100	> 100	> 100	–	> 100	–	> 100	> 100	> 100	> 100	–	–	–	–	–	–	–	–	–	–
COc1ccc2c3c([nH]c2c1)CCN(CCCC(=O)c1ccc(F)cc1)C3	32	34.1	42.8	17.7	29.1	36.4	34.8	31.7	29.7	34.4	–	–	–	–	–	–	–	–	–	–
CC(O)(P(=O)(O)O)P(=O)(O)OCC(O)CN1CCOCC1 (stereo not drawn)	> 100	> 100	> 100	> 100	> 100	> 100	> 100	> 100	–	> 100	–	–	–	–	–	–	–	–	–	–
C/C=C1\CN(C(=O)OC(C)(C)C)C1C(=O)OC(C)(C)C (stereo not drawn)	–	> 100	–	> 100	> 100	> 100	> 100	> 100	> 100	–	–	–	–	–	–	–	–	–	–	–
O=C(O)c1cnc(-n2[nH]c3c(c2=O)CCCC3)[nH]c1=O	> 100	> 100	> 100	–	> 100	> 100	> 100	> 100	> 100	> 100	–	–	–	–	–	–	–	–	–	–
CC(C)=CCc1[nH]c2ccccc2c1C1=C(O)C(=O)C(c2c(CC=C(C)C)[nH]c3ccccc23)=C(O)C1=O	6.52	7.11	5.58	3.29	–	3.87	5.87	73.8	4.79	2.82	–	–	–	–	–	–	–	–	–	–
O=C(N/N=C\c1ccc(N(CCCl)CCCl)cc1[N+](=O)[O-])c1cccnc1	> 100	> 100	> 100	> 100	> 100	> 100	> 100	> 100	> 100	> 100	> 100	> 100000	> 100	> 100000	> 100000	> 100000	> 100000	> 100000	> 100000	> 100000
Clc1cccc(NN=Nc2ccc(-c3nc4ccccc4s3)cc2)c1	> 100	–	66.2	> 100	> 100	> 100	63.3	> 100	62.2	> 100	–	–	–	–	–	–	–	–	–	–
Cc1sc2c(c1C)/C(=N\O)c1cccn1-2	69.7	> 100	> 100	> 100	> 100	> 100	–	46	> 100	> 100	–	–	–	–	–	–	–	–	–	–
Cn1c(CO)ccc1-c1ccc(-c2ccc[se]2)[se]1	–	> 100	> 100	> 47.7	–	> 100	50.7	> 100	99.5	> 100	–	–	–	–	–	–	–	–	–	–
CCCCCCCCCCCCCCC(O)C[N+](C)(CCO)CCO (stereo not drawn)	2.89	5.16	5.03	3.51	4.16	6.56	20.7	7.87	21.5	4.23	–	–	–	–	–	–	–	–	–	–
CCOC(=O)c1nc2ccc(C(F)(F)F)cc2nc1Nc1ccc(Cl)c(Cl)c1	–	> 100	> 100	> 100	> 100	> 100	> 100	> 100	> 100	> 100	–	–	–	–	–	–	–	–	–	–
C=C1C(O)C[C@H](OC(C)=O)[C@]2(C)C1C(OC(C)=O)[C@]1(C(C)(C)O)CC(O)C(C)=C1[C@@H](OC(=O)c1ccccc1)C2OC(C)=O (stereo partly drawn)	> 10	> 10	> 10	–	> 10	> 10	> 10	> 10	> 10	> 10	–	–	–	–	–	–	–	–	–	–
COc1cc2c(c(O)c1OC)CC1CCC(=O)N1C2c1cccc2ccccc12 (stereo not drawn)	42.9	78.7	41	33.3	> 100	61.1	67.6	69.3	34.2	55.4	–	–	–	–	–	–	–	–	–	–
CC(C)(C)c1cc(OCc2nn3c(Cc4ccccc4)nnc3s2)c(Cl)cc1OCc1nn2c(Cc3ccccc3)nnc2s1	> 100	> 100	> 100	> 100	> 100	> 100	> 100	> 100	> 100	> 100	–	–	–	–	–	–	–	–	–	–

SMILES	TGI (U251 CNS) [µM]	TGI (SF-268 CNS) [µM]	TGI (NCI-H522 lung) [µM]	TGI (HCC-2998 colon) [µM]	TGI (TK-10 renal) [µM]	TGI (NCI-H460 lung) [µM]	TGI (NCI-H23 lung) [µM]	TGI (HS 578T breast) [µM]	TGI (SN12C renal) [µM]	TGI (KM12 colon) [µM]	GI50 (U251 CNS) [µM]	GI50 (SF-268 CNS) [nM]	GI50 (NCI-H522 lung) [µM]	GI50 (HCC-2998 colon) [nM]	GI50 (TK-10 renal) [nM]	GI50 (NCI-H460 lung) [nM]	GI50 (NCI-H23 lung) [nM]	GI50 (HS 578T breast) [nM]	GI50 (SN12C renal) [nM]	GI50 (KM12 colon) [nM]
Cc1oc2c(c1C)S(=O)(=O)C(C#N)=C(N(C)C)N2	> 100	> 100	> 100	> 100	> 100	> 100	> 100	> 100	> 100	> 100	–	–	–	–	–	–	–	–	–	–
CC(=O)Oc1c(N2CCCCC2)c(C(=O)c2ccccc2)c(O)c2ccn(N(C)C)c12	33.5	57.5	–	37.2	36.8	51.2	38.5	66.8	33.7	27.1	–	–	–	–	–	–	–	–	–	–
O=C1C(Cl)=C(N(C(=O)c2ccccc2)C(=O)c2ccccc2)C(=O)c2ccccc21	> 100	21.7	43.7	37.4	37.8	28.5	31.1	98	61.3	15.7	–	–	–	–	–	–	–	–	–	–
Cn1ncc2c(Cl)ncnc21	> 100	> 100	> 100	> 100	> 100	> 100	> 100	> 100	> 100	> 100	–	–	–	–	–	–	–	–	–	–
Nc1nc(Cl)cc(NC2(CO)CCC2)n1	> 100	> 100	> 100	> 100	> 100	> 100	> 100	> 100	> 100	> 100	–	–	–	–	–	–	–	–	–	–
CC(=O)Oc1ccc2c(c1)CC[C@@H]1C2[C@@H](O[N+](=O)[O-])C[C@@]2(C)C1CC[C@@H]2O[N+](=O)[O-] (stereo partly drawn)	27.5	29.7	25.4	25.9	35.7	28.7	29.2	47.7	29.5	33.4	–	–	–	–	–	–	–	–	–	–
CCOC(=O)C(NC(=O)c1ccccc1)(N1CCN(c2cc3c(cc2F)c(=O)c(C(=O)O)cn3CC)CC1)C(F)(F)F (stereo not drawn)	> 100	> 100	32.4	> 100	94.8	> 100	> 100	> 100	> 100	81.3	–	–	–	–	–	–	–	–	–	–
CCOC(=O)Nc1ccc2c(c1)c(CCCCCCc1nc3ccccc3c3ccc(NC(=O)OCC)cc13)nc1ccccc12	–	74.9	60.5	> 100	84.8	> 100	> 100	> 100	> 100	> 100	–	–	–	–	–	–	–	–	–	–
Cc1nc(C)c(N2CCNCC2)c(=O)[nH]1	> 100	> 100	> 100	> 100	> 100	> 100	> 100	> 100	> 100	> 100	–	–	–	–	–	–	–	–	–	–
CCOC(=O)NC(OC)(C(F)(F)F)C(F)(F)F	> 100	> 100	> 100	> 100	> 100	> 100	> 100	> 100	–	–	–	–	–	–	–	–	–	–	–	–
Cn1cc(-c2ccc3cc(-c4ccc(CC(=O)Nc5cc(C(C)(C)C)on5)cc4)cnc3c2)cn1	–	14.8	–	21	10.4	2.55	10.5	15.2	10.4	11.2	–	1960	–	2890	1630	840	2270	397	1150	70
Nc1ncn2c(n1)nc1ccccc12	> 100	> 100	> 100	–	> 100	> 100	> 100	> 100	> 100	> 100	–	–	–	–	–	–	–	–	–	–
Cc1c(N=Nc2ccccc2)c(C)n(C2OC(CO)C(O)C(O)C2O)c(=S)c1C#N (stereo not drawn)	87.2	> 100	–	59.3	> 100	> 100	> 100	> 100	> 100	> 100	–	–	–	–	–	–	–	–	–	–
Nc1[nH]nc2nc3ccccc3nc12	> 100	> 100	> 100	> 100	> 100	> 100	> 100	> 100	> 100	–	–	–	–	–	–	–	–	–	–	–
NC(CSSCC(N)=NCC12CC3CC(CC(C3)C1)C2)=NCC12CC3CC(CC(C3)C1)C2	29	> 100	38.6	–	36.3	> 100	32.3	50.7	31.1	29	–	–	–	–	–	–	–	–	–	–
CC1(C)CCC(C)(C)C1C(=O)NC(O)C(=O)O (stereo not drawn)	> 100	> 100	–	> 100	> 100	> 100	–	> 100	> 100	–	–	–	–	–	–	–	–	–	–	–
CC(C)(C)OC(=O)CN1CCNCCN(CC(=O)OC(C)(C)C)CCNCC1	> 100	–	> 100	> 100	> 100	> 100	–	> 100	> 100	> 100	–	–	–	–	–	–	–	–	–	–
O=C(CCC=C(S(=O)(=O)c1ccccc1)S(=O)(=O)c1ccccc1)c1ccccc1	15.6	18.8	9.45	21.7	19.3	33.8	–	31	13.1	> 100	–	–	–	–	–	–	–	–	–	–
Cc1csc2c1-n1cccc1C2=O	> 100	> 100	> 100	> 100	> 100	> 100	–	> 100	> 100	> 100	–	–	–	–	–	–	–	–	–	–
CC(=O)Oc1c(-c2ccccc2)sc2ccccc12	39.8	71.2	51.3	32	65.1	27.7	38.7	40.6	–	52.3	–	–	–	–	–	–	–	–	–	–
O=C(Nc1cccc([N+](=O)[O-])c1)c1n[nH]n(-c2cccc([N+](=O)[O-])c2)c1=O	> 100	> 100	> 100	–	–	–	> 100	> 100	> 100	> 100	–	–	–	–	–	–	–	–	–	–

From PubChem BioAssay (NCI)
